Consider 24 compounds from US8598190B2, “3H-imidazo [4, 5-C] pyridine-6-carboxamides as anti-inflammatory agents” (Boehringer Ingelheim International GmbH, priority 2008, dated 2013).

The first experiment addresses T1, recombinant human mPGES-1 (Homo sapiens, UniProt O14684).
T1 construct: made in house; host or cells: Rosetta E. coli (microsomal/membrane fraction)
T1 sequence (O14684 1-152): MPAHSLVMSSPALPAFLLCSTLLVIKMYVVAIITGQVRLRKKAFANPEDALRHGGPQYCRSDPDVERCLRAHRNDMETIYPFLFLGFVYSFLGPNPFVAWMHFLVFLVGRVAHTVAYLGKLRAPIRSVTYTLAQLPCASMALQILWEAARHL
In words: mPGES-1 inhibition test (microsomes, HTRF detection of PGE2). Format: biochemical.
Details: not given
As for the experimental part: Microsomes from Rosetta E. coli bacteria expressing recombinant human mPGES-1 is dissolved in 0.1 M KPi pH 7.4 buffer containing 2.5 mM GSH. 50 μl of the enzyme is subsequently dispensed in a 384-well plate. 0.5 μl of the inhibitor dissolved in DMSO at is thereafter added to each well and incubated for 25 minutes at room temperature.
Subsequently, 2 μl of PGH2 dissolved in an appropriate solvent is added to each well and after one minute the acidified stop solution containing FeCl2 is added. 4 μl of the total volume is transferred to a separate plate and diluted 750-fold in two separate steps before HTRF detection of PGE2.
The HTRf detection is performed by the use of a commercially available kit from CisBio essentially according to the manufacturer's protocol. Briefly, 10 μl of the diluted sample is transferred to a white 384-well plate. 5 μl of d2 and 5 μl Eu3+-Cryptate labeled anti-PGE2 is added to each well containing samples by the use of a Multidrop. The plate is covered with a plastic self-adhesive film, centrifuged at 1200 rpm for 1 minute and subsequently stored at +4° C. over night.
After over night incubation the fluorescence is measured by the use of an appropriate microplate reader. The fluorescence of europium cryptate, and d2 are measured using the following excitation and emission wavelength, europium cryptate: λmax^ex=307 nm, λmax^em=620 nm and d2: λmax^ex=620 nm, λmax^em=665 nm), respectively. The extent of the specific FRET is measured as a ratio of the emission intensity at 665 nm vs. that at 620 nm. A standard curve using synthetic PGE2 is used to quantify the amount of PGE2 in unknown samples.
By inhibition is commonly meant the change of the read-out against control, counted positive when it falls. For the compound `Cc1cnc(NC(=O)c2cc3[nH]c(Nc4c(Cl)cncc4Cl)nc3cn2)cc1C1CC1` [Example 735, 2-(3,5-Dichloro-pyridin-4-yl-amino)-N-(4-cyclopropyl-5-methyl-pyridin-2-yl)-1H-imidazo[4,5-c]pyridine-6-carboxamide], the inhibition at 10 µM turned out to be 99%.
As to `Cc1cc(NC(=O)c2cc3[nH]c(Nc4c(Cl)cccc4Cl)nc3cn2)ncc1Cl` [Example 718, 2-(2,6-Dichlorophenylamino)-N-(5-chloro-4-methyl-pyridin-2-yl)-1H-imidazo[4,5-c]pyridine-6-carboxamide], the inhibition at 10 µM stood at 100%.
Still for that read-out and setting: then `O=C(Nc1ccc(Br)cc1)c1cc2[nH]c(Nc3c(Cl)cccc3Cl)nc2cn1` [Example 722, 2-(2,6-Dichlorophenylamino)-N-(4-bromo-phenyl)-1H-imidazo[4,5-c]pyridine-6-carboxamide], with 100%; and `O=C(Nc1cc(C(F)(F)F)ccn1)c1cc2[nH]c(Nc3c(Cl)cc(F)cc3Cl)nc2cn1` [Example 730, 2-(2,6-Dichloro-4-fluoro-phenylamino)-N-(4-trifluoromethyl-pyridin-2-yl)-1H-imidazo[4,5-c]pyridine-6-carboxamide], with 100%.
Consider `O=C(Nc1cc(OC2CCOC2)ccn1)c1cc2[nH]c(Nc3c(Cl)cccc3Cl)nc2cn1` (stereo not drawn) [Example 495, 2-(2,6-Dichlorophenylamino)-N-(4-(tetrahydrofuran-3-yl-oxy)-pyridin-2-yl)-1H-imidazo[4,5-c]pyridine-6-carboxamide], for which the inhibition at 10 µM was determined as 86%.
Same read-out and setting: then `Cn1c(Nc2c(F)cccc2Cl)nc2cc(C(=O)NC3CCC4(CC3)CC4)ncc21` [Example 417, 2-(2-Chloro-6-fluoro-phenylamino)-3-methyl-N-(spiro[2.5]octan-6-yl)-3H-imidazo[4,5-c]pyridine-6-carboxamide], with 100%; and `Cc1cnc(NC(=O)c2cc3[nH]c(Nc4c(Cl)cccc4Cl)nc3cn2)cc1Cl` [Example 427, N-(4-Chloro-5-methyl-pyridin-2-yl)-2-(2,6-dichlorophenylamino)-1H-imidazo[4,5-c]pyridine-6-carboxamide], with 98%; and `CN(C)c1cc(C(F)(F)F)cc(NC(=O)c2cc3[nH]c(Nc4c(Cl)cncc4Cl)nc3cn2)n1` [Example 739, 2-(3,5-Dichloro-pyridin-4-yl-amino)-N-(6-dimethylamino-4-trifluoromethyl-pyridin-2-yl)-1H-imidazo[4,5-c]pyridine-6-carboxamide], with 100%.
`Cn1c(Nc2c(Cl)cccc2Cl)nc2cc(C(=O)N[C@H]3CC[C@H](C(F)(F)F)CC3)ncc21` [Example 424, 2-(2,6-Dichlorophenylamino)-3-methyl-N-((1r,4r)-4-trifluoromethyl-cyclohexyl)-3H-imidazo[4,5-c]pyridine-6-carboxamide]: the inhibition at 10 µM came out at 100%.
As for `Cn1c(Nc2c(Cl)cccc2Cl)nc2cc(C(=O)NCc3ncccc3C(F)(F)F)ncc21` [Example 528, 2-(2,6-Dichlorophenylamino)-3-methyl-N-((3-trifluoromethyl-pyridin-2-yl)-methyl)-3H-imidazo[4,5-c]pyridine-6-carboxamide], the inhibition at 10 µM stood at 96%.
Take `CC(C)c1ccc(NC(=O)c2cc3[nH]c(Nc4c(Cl)cncc4Cl)nc3cn2)nc1` [Example 737, 2-(3,5-Dichloro-pyridin-4-yl-amino)-N-(5-isopropyl-pyridin-2-yl)-1H-imidazo[4,5-c]pyridine-6-carboxamide]: the inhibition at 10 µM is 97%.
Same read-out and setting: in the case of `O=C(Nc1ccc(C(F)(F)F)cn1)c1cc2[nH]c(Nc3c(Cl)cccc3Cl)nc2cn1` [Example 720, 2-(2,6-Dichlorophenylamino)-N-(5-trifluoromethyl-pyridin-2-yl)-1H-imidazo[4,5-c]pyridine-6-carboxamide] it was 100%; in that of `O=C(NC1CCCCC1)c1cc2[nH]c(Nc3c(Cl)cccc3Cl)nc2cn1` [Example 137, 2-(2,6-Dichloro-phenylamino)-3H-imidazo[4,5-c]pyridine-6-carboxylic acid-cyclohexyl-amide], 100%; in that of `Cn1c(Nc2c(F)cccc2Cl)nc2cc(C(=O)NCc3ncccc3C3CC3)ncc21` [Example 522, 2-(2-Chloro-6-fluorophenylamino)-N-((3-cyclopropylpyridin-2-yl)-methyl)-3-methyl-3H-imidazo[4,5-c]pyridine-6-carboxamide], 100%.
The same measure, in the same setting: in the case of `Cn1c(Nc2c(F)cccc2Cl)nc2cc(C(=O)NC3CCC(C)(C)CC3)ncc21` [Example 389, 2-(2-Chloro-6-fluorophenylamino)-N-(4,4-dimethylcyclohexyl)-3-methyl-3H-imidazo[4,5-c]-pyridine-6-carboxamide] it was 100%; in that of `O=C(Nc1ccc(C2CC2)cn1)c1cc2[nH]c(Nc3c(Cl)cccc3Cl)nc2cn1` [Example 725, 2-(2,6-Dichlorophenylamino)-N-(5-cyclopropyl-pyridin-2-yl)-1H-imidazo[4,5-c]pyridine-6-carboxamide], 100%; in that of `Cc1cnc(NC(=O)c2cc3[nH]c(Nc4c(Cl)cccc4Cl)nc3cn2)cc1C` [Example 717, 2-(2,6-Dichlorophenylamino)-N-(4,5-dimethyl-pyridin-2-yl)-1H-imidazo[4,5-c]pyridine-6-carboxamide], 100%.
The same measure, in the same setting: then `O=C(NCc1ncccc1C(F)(F)F)c1cc2[nH]c(Nc3c(Cl)cccc3Cl)nc2cn1` [Example 509, 2-(2,6-Dichlorophenylamino)-N-((3-trifluoromethyl-pyridin-2-yl)methyl)-1H-imidazo[4,5-c]pyridine-6-carboxamide], with 97%; and `O=C(NCC(F)(F)C(F)(F)C(F)(F)C(F)(F)C(F)(F)C(F)(F)C(F)(F)F)c1cc2[nH]c(Nc3c(Cl)cccc3Cl)nc2cn1` [Example 721, 2-(2,6-Dichlorophenylamino)-N-(2,2,3,3,4,4,5,5,6,6,7,7,8,8,8-pentadecafluoro-octyl)-1H-imidazo[4,5-c]pyridine-6-carboxamide], with 100%; and `O=C(NC1CCC2(CC1)CC2)c1cc2[nH]c(Nc3c(Cl)cccc3Cl)nc2cn1` [Example 451, 2-(2,6-Dichlorophenylamino)-N-(spiro[2.5]octan-6-yl)-1H-imidazo[4,5-c]pyridine-6-carboxamide], with 99%.
Turning to `CC1(C)CCC(NC(=O)c2cc3nc(Nc4c(Cl)cccc4Cl)[nH]c3cn2)CC1` [Example 83, 2-(2,6-Dichloro-phenylamino)-3H-imidazo[4,5-c]pyridine-6-carboxylic acid (4,4-dimethyl-cyclohexyl)-amide], the inhibition at 10 µM stood at 100%.
The same measure, in the same setting: in the case of `Cc1cc(NC(=O)c2cc3nc(Nc4c(Cl)cccc4Cl)n(C)c3cn2)ncc1Cl` [Example 726, 2-(2,6-Dichlorophenylamino)-3-methyl-N-(5-chloro-4-methyl-pyridin-2-yl)-3H-imidazo[4,5-c]pyridine-6-carboxamide] it was 100%.
Same read-out and setting: then `O=C(Nc1cc(C(F)(F)F)cc(C2CC2)n1)c1cc2[nH]c(Nc3c(Cl)cncc3Cl)nc2cn1` [Example 740, 2-(3,5-Dichloro-pyridin-4-yl-amino)-N-(6-cyclopropyl-4-trifluoromethyl-pyridin-2-yl)-1H-imidazo[4,5-c]pyridine-6-carboxamide], with 100%.

The same experiment, now with this note: percentage inhibition of mPGES-1 at 10 μM (unless otherwise specified).
As for `Cn1c(Nc2c(Cl)cccc2Cl)nc2cc(C(=O)Nc3ccc(Br)cc3)cnc21` [Example 463], the “% inhib.” value is given as 97%.
